Tests used:
[1] = system: young oophorectomized rats; experiment: Estrogenic activity (uterine wet weight) in young oophorectomized rats; type: in vivo, Sprague-Dawley rats
Description: Sprague-Dawley rats, 33 days old and 11 days after oophorectomy for elimination of endogenous estrogenic activity, were used in groups of 6 to 7 animals. Compound (I) was suspended in a 1% aqueous solution of hydroxypropylcellulose and administered orally for 3 days, while as a representative example of the conventional estrogen drug, estrone was dissolved in sesame oil and administered subcutaneously for 3 days. On the fourth day, each animal was autopsied and its uterine wet weight was recorded.
Sprague-Dawley rats, 33 days old and 11 days after oophorectomy for elimination of endogenous estrogenic activity, were used in groups of 7 animals. Compound (II) was suspended in a 1% aqueous solution of hydroxypropylcellulose and administered orally.

[2] = system: rat fetal long bone culture; experiment: Bone resorption inhibiting activity in rat fetal long bone culture (45Ca release, method of Raisz); type: cell-based, Sprague-Dawley rat; settings: for ^45Ca (%) released: incubated 3 days, mean ± S.D. of six bones; for bone resorption: result in words, summary of Table 3
Description: Determination of bone resorption was performed by the method of Raisz [J. Clin. Invest. 44, 103-116 (1965)]. rhus, a Sprague-Dawley rat on the 19th day of pregnancy was subcutaneously injected with 50 p Ci of 45Ca (isotope of calcium, CaCl2 solution), and was laparotomized on the following day. The embryos were aseptically taken out, the forelimbs (radius and ulna) were cut off from the trunk under a binocular dissecting microscope, and the connective tissue and cartilage were removed as much as possible to prepare bone samples. Each bone sample was preincubated at 37°C for 24 hours in 0.6 mℓ of the medium containing 2 mg/mℓ of bovine serum albumin in BGJb medium (Fitton-Jackson modification) [GIBCO Laboratories, Grand Island, NY 14072 U.S.A.]. Then, the sample was further incubated for 3 days in the same medium as above in which 10 µg/mℓ or 25 µg/mℓ of compound (I) or 10 µg/mℓ of compound (II) had been incorporated. Then, the radioactivity of 45Ca in the medium and that of 45Ca in the bone were measured and the percentage (%) of ^45Ca released from the bone into the medium was calculated by the following formula.
Percentage (%) of 45 Ca released from bone into medium [formula]
As control, the bones of the embryos from the same litter were similarly incubated in the absence of compound (I) or (II) for 3 days.

Sprague-Dawley rats = experiment: Acute toxicity in rats; type: in vivo; settings: observed 14 days, LD50 could not be calculated
Description: (§1) Five-week-old ICR mice and 5-week-old Sprague-Dawley rats were respectively used in groups of 10 males and 10 females, and suspensions of compound (I) or compound (II) in olive oil were administered orally [2,500, 5,000 and 10,000 mg/kg of each compound] or subcutaneously [1,250, 2,500 and 5,000 mg/kg]. The animals were kept under observation for 14 days.

ICR mice = experiment: Acute toxicity in mice; type: in vivo; settings: observed 14 days, LD50 could not be calculated
Description: as §1

[3] = system: rat fetal long bone culture; experiment: Inhibition of the bone resorption potentiating action of parathyroid hormone in rat fetal long bone culture; type: cell-based
Description: The bone samples prepared in the same manner as Test Example 3 were pre-incubated for 24 hours in the same medium as that prepared in Test Example 3 which contains bovine serum album in BGJb medium (Fitton-Jackson modification). Then, in the concomitant presence of PTH (parathyroid hormone, a bone resorption stimulant) and compound (II), the samples were further incubated for 3 days and the percentage of ^45Ca released into the medium was calculated by means of the same formula as that in Test Example 3. As control experiments, the same determination was made for a control group using the medium supplemented with PTH alone.

[4] = orally 2,500, 5,000 and 10,000 mg/kg in olive oil
[5] = subcutaneously 1,250, 2,500 and 5,000 mg/kg in olive oil

O=c1c(-c2ccccc2)coc2cc(O)ccc12 [Compound (I), 7-hydroxy-isoflavone]
Uterine wet weight (mg ± S.D.) ([1]; daily dose 6.25 mg/kg orally for 3 days, control group 35.0 ± 1.0): 32.8 ± 1.1 mg
Uterine wet weight (mg ± S.D.) ([1]; daily dose 12.5 mg/kg orally for 3 days, control group 35.0 ± 1.0): 33.4 ± 0.9 mg
Uterine wet weight (mg ± S.D.) ([1]; daily dose 25 mg/kg orally for 3 days, control group 35.0 ± 1.0): 35.1 ± 0.8 mg
Uterine wet weight (mg ± S.D.) ([1]; daily dose 50 mg/kg orally for 3 days, control group 35.0 ± 1.0): 35.3 ± 1.7 mg
Uterine wet weight (mg ± S.D.) ([1]; daily dose 100 mg/kg orally for 3 days, control group 35.0 ± 1.0): 35.9 ± 1.0 mg
Uterine wet weight (mg ± S.D.) ([1]; daily dose 200 mg/kg orally for 3 days, control group 35.0 ± 1.0): 57.9 ± 1.0 mg
Uterine wet weight (mg ± S.D.) ([1]; daily dose 400 mg/kg orally for 3 days, control group 35.0 ± 1.0): 70.4 ± 6.7 mg
uterine weight increasing effect, dose-response curve ([1]; orally, daily dose levels of 200 mg/kg and 400 mg/kg): produced uterine weight increasing effect with a dose-response curve of moderate gradient
^45Ca (%) released ([2]; 10 µg/mℓ, control group 20.6 ± 3.8): 16.5 ± 2.5 %
^45Ca (%) released ([2]; 25 µg/mℓ, control group 20.6 ± 3.8): 13.5 ± 2.5 %
bone resorption [2]: suppressed bone resorption

O=c1c(-c2ccc(O)cc2)coc2cc(O)ccc12 [Compound (II), 7,4'-dihydroxy-isoflavone]
deaths and toxic symptoms (Sprague-Dawley rats; [4]): None of the groups showed deaths nor toxic symptoms
deaths and toxic symptoms (Sprague-Dawley rats; [5]): None of the groups showed deaths nor toxic symptoms
Uterine wet weight (mg ± S.D.) ([1]; Test Example 2, daily dose 6.25 mg/kg orally, control group 31.1 ± 1.1): 33.2 ± 0.8 mg
Uterine wet weight (mg ± S.D.) ([1]; Test Example 2, daily dose 25 mg/kg orally, control group 31.1 ± 1.1): 32.8 ± 1.0 mg
Uterine wet weight (mg ± S.D.) ([1]; Test Example 2, daily dose 100 mg/kg orally, control group 31.1 ± 1.1): 35.3 ± 1.3 mg
Uterine wet weight (mg ± S.D.) ([1]; Test Example 2, daily dose 400 mg/kg orally, control group 31.1 ± 1.1): 62.3 ± 6.0 mg
uterine weight increasing activity ([1]; orally, dose level of 400 mg/kg): showed mild uterine weight increasing activity
deaths and toxic symptoms (ICR mice; [4]): None of the groups showed deaths nor toxic symptoms
deaths and toxic symptoms (ICR mice; [5]): None of the groups showed deaths nor toxic symptoms
^45Ca (%) released ([3]; 10 µg/ml in concomitant presence of PTH, incubated 3 days, control group (PTH alone) 30.8±4.3): 23.5±3.4 %
PTH-stimulated bone resorption ([3]; result in words, summary of Table 4): suppressed PTH-stimulated bone resorption
^45Ca (%) released ([2]; 10 µg/mℓ, control group 19.9 ± 5.0): 15.9 ± 1.3 %
bone resorption [2]: suppressed bone resorption

C[C@]12CC[C@@H]3c4ccc(O)cc4CC[C@H]3[C@@H]1CCC2=O [Estrone, estrone, reference compound]
Uterine wet weight (mg ± S.D.) ([1]; daily dose 0.0025 mg/kg subcutaneously in sesame oil for 3 days, control group 35.0 ± 1.0): 101.7 ± 4.6 mg
Uterine wet weight (mg ± S.D.) ([1]; daily dose 0.005 mg/kg subcutaneously in sesame oil for 3 days, control group 35.0 ± 1.0): 159.8 ± 9.4 mg
Uterine wet weight (mg ± S.D.) ([1]; daily dose 0.01 mg/kg subcutaneously in sesame oil for 3 days, control group 35.0 ± 1.0): 223.3 ± 12.5 mg
